Source: US20240139223A1, “SOY ISOFLAVONES FOR ASTHMA PREVENTION” (University of South Florida, priority 2021, published 2024)

Key:
[1] = tested on: PAI-1 production in normal human bronchial epithelial (NHBE) cells; test: TGF-β1-induced PAI-1 gene expression and protein production in NHBE cells (real-time PCR, ELISA); type: cell-based; details: for TGF-β1-induced PAI-1 protein production: 6 hours, NHBE
Description: Normal human bronchial epithelial (NHBE) cells were cultured, as previously described in Cho S H, Lee S H, Kato A, Takabayashi T, Kulka M, Shin S C, et al. Cross-talk between human mast cells and bronchial epithelial cells in plasminogen activator inhibitor-1 production via transforming growth factor-b1. Am J Respir Cell Mol Biol 2015; 52:88-95, herein incorporated by reference in its entirety into this disclosure. […] Cell pellets were used for real-time PCR, and cell-culture supernatants were used for PAI-1 protein ELISA.
The PAI-1 concentration in the blood of subjects and supernatants of NHBE cells was measured in duplicate by means of ELISA (Assay Pro, St Charles, Mo), as previously described in Cho et al. 2015, herein incorporated by reference in its entirety into this disclosure. For mRNA analysis of PAI-1 (Hs00167155_m1), quantitative real-time PCR was performed with the ViiA 7 Real-Time PCR System (Applied Biosystems, Foster City, Calif). Expression of glyceraldehyde-3-phosphate dehydrogenase (GAPDH; Hs02786624_g1) was used as an internal control for normalization. Cycling conditions were as follows: 50° C. for 2 minutes (hold) for 1 cycle, 95° C. for 10 minutes (hold) for 1 cycle, and 95° C. for 15 seconds and 60° C. for 1 minute (cycling) for 40 cycles. Relative gene expression was calculated by using the comparative 2^−ΔΔCT method.
To investigate the cellular mechanism of the soy isoflavone/PAI-1 link, the inventors treated cultured NHBE cells with TGF-β1 (2 ng/mL) for 6 hours with and without genistein pretreatment. There was a significant increase in PAI-1 mRNA and protein production (about 10-fold) after adding TGF-β1 (FIG. 1). […] Soy isoflavones reduce asthma exacerbation in high PAI-1 producing genotype. (FIG. 2)
There was a significant increase of the PAI-1 mRNA and protein production (about 10-fold) after adding the TGF-β1 (FIG. 5).

[2] = tested on: murine model of asthma (BALB/c mice); test: Airway hyperresponsiveness (total respiratory system resistance, FlexiVent) in OVA murine model of asthma; type: in vivo, mouse; details: summary
Description: Eight-week-old BALB/c mice were purchased from The Jackson Lab and housed in standard laboratory conditions (12/12-h light/dark cycle, 22-24° C., 40-60% humidity). Forty female mice were divided into four groups (namely, OVA+Veh, OVA+Bio300, PBS+Veh, PBS+Bio300). Genistein (Bio300, Humanetics Corp.) was administered to two of the groups in conjunction with either OVA or PBS. The mice in each group (n=10) were equally divided into two cages (5 mice/cage) to provide appropriate space for the mice. […]
From Day 14 to Day 28, the OVA+Bio300 and PBS+Bio300 groups received Bio300 (100 ul) by oral gavage every other day. […] On Day 29, airway hyperresponsiveness (AHR) was assessed and tissues were obtained for further analysis.
All mice were anesthetized with ketamine, tracheostomized, and mechanically ventilated with a FlexiVent system (SCIREQ, Flexivent, Scireq Inc., Montreal, Canada) as described in Choi et al., incorporated by reference in its entirety herein. […] Volume changes due to thoracic expansion and alterations in tracheal pressure were measured in response to challenges with increasing concentrations of methacholine (3, 6, 12, 25, and 50 mg/mL) and reported as total respiratory system resistance (Rrs).

[3] = tested on: pDCs; details: cited from earlier work
[4] = tested on: human rhinovirus (HRV); details: compared with guideline-driven care alone; cited from earlier work

O=c1c(-c2ccc(O)cc2)coc2cc(O)cc(O)c12 [genistein]
PAI-1 production from human bronchial EC and mast cells ([1]; FIG. 5 legend): significantly reduces
TGF-β1-induced PAI-1 gene expression and protein production ([1]; NHBE cells, genistein pretreatment): significantly reduced
TGF-β1-induced PAI-1 protein production ([1]; genistein 1 μM pretreatment, TGF-β1 2 ng/ml): 360700 ± 10500 pg/mL
TGF-β1-induced PAI-1 protein production ([1]; genistein 5 μM pretreatment, TGF-β1 2 ng/ml): 306.0 ± 5.3 pg/mL
TGF-β1-induced PAI-1 protein production ([1]; genistein 5 mmol/L pretreatment, TGF-β1 2 ng/mL): 306.0 ± 5.3 pg/mL
Allergic inflammation and airway hyperreactivity [2]: reduced allergic inflammation and improved airway hyperreactivity

TGF-β1: recombinant human TGF-β1 (R&D Systems), stimulus of PAI-1 production [reference compound]
Increase in PAI-1 mRNA and protein production ([1]; NHBE cells, TGF-β1 2 ng/mL for 6 hours): about 10 fold

omalizumab: costly biological agent blocking IgE, administered by injection
Interferon alpha production from pDCs ([3]; ex vivo and in vivo treatment): restored
Reduction of FcεRIα expression on pDCs ([3]; omalizumab treatment, previous study): about 57%
Duration of HRV infections, viral shedding, and risk of HRV-related illness [4]: decreased
